# Data from patent publication US4593090A, “Novel nitrosourea compounds, method for preparing same, and pharmaceutical composition containing same” (Gogo Kimura, priority 1981, dated 1986).
# Assays:
# Leukemia L1210 = assay: Activity against Leukemia L1210, intraperitoneal, increase in life span of mice; assay type: in vivo, female mice (BDF1 family); settings: for ED (maximum ILS) / ED30: Mus musculus, L1210, ip; for ED (maximum ILS): read-out: O.D. (optimum dosage); for ED30: read-out: ILS30; for Survivors after 60 days / Max. ILS % / Therapeutic ratio TR: ip; for Survivors after 60 days: 6-membered group; for Max. ILS %: 60-day observation, versus control; for Therapeutic ratio TR: O.D./ILS30
# How it was run: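 Female BDF1 mice (20 to 23 g, 6 per group) implanted ip with 1×10^5 L1210 cells; test compound given ip or orally once daily for 5 days starting 24 h later. ILS% from mean survival days vs untreated controls over 60 days; T.R. = O.D./ILS30.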
# [1] = Acute toxicity (LD50, Behrens-Karber method); assay type: in vivo, ICR mice; settings: ip, mortality during 30 days; for LD50 at 720 h: mouse, in vivo
# Experimental: Test compounds, dissolved or suspended in 0.5% aqueous CMC, were each intraperitoneally administered to ICR mice in a dose of 0.1 ml per 10 g body weight. LD50 (mg/kg) value of each test compound was calculated from the mortality of mice during 30 days by the Behrens-Karber method.
# [2] = ip once a day for 5 successive days, daily dosage giving maximum increase of life span
# [3] = ip once a day for 5 successive days, daily dosage increasing average survival days by 30%
SMILES,ED (maximum ILS) (Leukemia L1210; [2]) [mg/kg],ED30 (Leukemia L1210; [3]) [mg/kg],Survivors after 60 days (Leukemia L1210),Max. ILS % (Leukemia L1210) [%],Therapeutic ratio TR (Leukemia L1210),LD50 at 720 h [1] [mg/kg],O.D. (optimum dosage) (Leukemia L1210; [2]) [mg/kg],ILS30 (Leukemia L1210; [3]) [mg/kg],LD50 ([1]; 43200 min) [mg/kg]
"COCCCOC1OC(CO)C(O)C(N(CC(C)C)C(=O)N(CCCl)N=O)C1O [Compound 77, 3-isobutyl-3-(3-methoxy-n-propyl α-D-glucopyranose-3-yl)-1-(2-chloroethyl)-1-nitrosourea]",200,5.08,4/6,> 425,39.4,685,–,–,–
"CCCCCCCCCCN(C[C@H]1O[C@H](OCCCC)[C@H](O)[C@@H](O)[C@@H]1O)C(=O)N(CCCl)N=O [Compound 8, 3-n-decyl-3-(n-butyl α-D-glucopyranose-6-yl)-1-(2-chloroethyl)-1-nitrosourea]",100,4.46,3/6,> 450,22.4,315,–,–,–
"CO[C@H]1O[C@H](CO)[C@@H](O)[C@H](NC(=O)N(CCCl)N=O)[C@H]1O [KCNUM, 3-(methyl α-D-glucopyranose-3-yl)-1-(2-chloroethyl)-1-nitrosourea, reference compound]",25.4,1.38,4/6,> 425,18.4,130,–,–,–
"CC(C)CN(C[C@H]1O[C@H](OCc2ccccc2)[C@H](O)[C@@H](O)[C@@H]1O)C(=O)N(CCCl)N=O [Compound 54, 3-isobutyl-3-(benzyl α-D-glucopyranose-6-yl)-1-(2-chloroethyl)-1-nitrosourea]",150,3.93,4/6,> 450,38.2,450,–,–,–
"O=NN(CCCl)C(=O)N(CC1CCCO1)[C@H]1[C@H](O)[C@@H](OCCc2ccccc2)O[C@H](CO)[C@H]1O (stereo partly drawn) [Compound 143, 3-tetrahydrofurfuryl-3-(phenyl-β-ethyl α-D-altropyranose-3-yl)-1-(2-chloroethyl)-1-nitrosourea]",150,3.52,4/6,> 425,42.6,460,–,–,–
"CCC(C)N(C(=O)N(CCCl)N=O)[C@H]1[C@H](O)[C@H](O)[C@@H](OCc2ccccc2)O[C@@H]1CO (stereo partly drawn) [Compound 138, 3-sec-butyl-3-(benzylα-D-mannopyranose-4-yl)-1-(2-chloroethyl)-1-nitrosourea]",120,4.26,3/6,> 350,28.2,370,–,–,–
"CC(C)CCO[C@H]1O[C@H](CN(CC(C)C)C(=O)N(CCCl)N=O)[C@@H](O)[C@H](O)[C@H]1O [Compound 25, 3-isobutyl-3-(isopentyl α-D-glucopyranose-6-yl)-1-(2-chloroethyl)-1-nitrosourea]",150,4.2,6/6,> 700,35.7,450,–,–,–
"CCCO[C@H]1O[C@H](CN(CC(C)C)C(=O)N(CCCl)N=O)[C@@H](O)[C@H](O)[C@H]1O [Compound 1, 3-isobutyl-3-(n-propyl α-D-glucopyranose-6-yl)-1-(2-chloroethyl)-1-nitrosourea]",120,2.96,6/6,> 700,40.5,340,–,–,–
"CCC(C)OC1OC(CO)C(N(C(=O)N(CCCl)N=O)C(C)COC)C(O)C1O [Compound 96, 3-(1-methyl-2-methoxyethyl)-3-(sec-butyl α-D-glucopyranose-4-yl)-1-(2-chloroethyl)-1-nitrosourea]",150,4.46,3/6,> 355,33.6,450,–,–,–
"COCCCN(C(=O)N(CCCl)N=O)[C@@H]1[C@@H](O)[C@@H](OCC(C)C)O[C@@H]1CO [Compound 165, 3-(3-methoxy-n-propyl)-3-(isobutyl α-D-xylofuranose-3-yl)-1-(2-chloroethyl)-1-nitrosourea]",160,5.57,3/6,> 340,28.7,480,–,–,–
"COc1ccc(CN(C(=O)N(CCCl)N=O)[C@H]2[C@@H](OCC(C)C)O[C@H](CO)[C@H](O)[C@@H]2O)cc1 [Compound 120, 3-(p-methoxybenzyl)-3-(isobutyl α-D-galactopyranose-2-yl)-1-(2-chloroethyl)-1-nitrosourea]",170,6.59,3/6,> 340,25.8,550,–,–,–
"CC(C)CN(C(=O)N(CCCl)N=O)C1C(OC2CCCCC2)OC(CO)C(O)C1O [Compound 73, 3-isobutyl-3-(cyclohexyl α-D-glucopyranose-2-yl)-1-(2-chloroethyl)-1-nitrosourea]",200,5.38,4/6,> 420,37.2,670,–,–,–
"CC(C)CO[C@H]1O[C@H](CO)[C@H](O)[C@H](O)[C@H]1N(CC(C)C)C(=O)N(CCCl)N=O [Compound 122, 3-isobutyl-3-(isobutyl α-D-galactopyranose-2-yl)-1-(2-chloroethyl)-1-nitrosourea]",200,6.85,3/6,> 355,29.2,715,–,–,–
CC(C)CO[C@@H]1OC[C@H](N(C(=O)N(CCCl)N=O)C2CCCCC2)[C@H](O)[C@H]1O [Compound 152],170,4.31,4/6,> 425,43.1,550,–,–,–
"COCC(C)OC1OC(CO)C(O)C(O)C1N(CC1CC1)C(=O)N(CCCl)N=O [Compound 72, 3-cyclopropylmethyl-3-(1-methyl-2-methoxyethyl α-D-glucopyranose-2-yl)-1-(2-chloroethyl)-1-nitrosourea]",180,4.53,5/6,> 625,39.7,550,–,–,–
"CC(C)(C)CN(C[C@H]1O[C@H](OCC2CCCO2)[C@H](O)[C@@H](O)[C@@H]1O)C(=O)N(CCCl)N=O (stereo partly drawn) [Compound 194, 3-neopentyl-3-(tetrahydrofurfuryl α-D-glucopyranose-6-yl)-1-(2-chloroethyl)-1-nitrosourea]",–,–,6/6,> 700,62.6,–,160,2.56,560
"CCC(C)N(C[C@H]1O[C@H](OC2CCCCC2)[C@H](O)[C@@H](O)[C@@H]1O)C(=O)N(CCCl)N=O (stereo partly drawn) [Compound 37, 3-sec-butyl-3-(cyclohexyl α-D-glucopyranose-6-yl)-1-(2-chloroethyl)-1-nitrosourea]",200,3.69,5/6,> 620,54.2,605,–,–,–
"CCCCCCN(C[C@H]1O[C@H](OCCCC)[C@H](O)[C@@H](O)[C@@H]1O)C(=O)N(CCCl)N=O [Compound 7, 3-n-hexyl-3-(n-butyl α-D-glucopyranose-6-yl)-1-(2-chloroethyl)-1-nitrosourea]",140,5.2,5/6,> 620,26.9,410,–,–,–
"O=NN(CCCl)C(=O)N(CC1CC1)C[C@H]1O[C@H](OC2CCCCC2)[C@H](O)[C@@H](O)[C@@H]1O [Compound 44, 3-cyclopropylmethyl-3-(cyclohexyl α-D-glucopyranose-6-yl)-1-(2-chloroethyl)-1-nitrosourea]",150,3.32,6/6,> 700,45.2,435,–,–,–
"CC(C)CO[C@H]1O[C@H](CN(CC(C)C)C(=O)N(CCCl)N=O)[C@@H](O)[C@H](O)[C@H]1O [Compound 14, 3-isobutyl-3-(isobutyl α-D-glucopyranose-6-yl)-1-(2-chloroethyl)-1-nitrosourea]",170,3.32,6/6,> 700,51.2,510,–,–,–
"CCCCOC1OC(CO)C(O)C(N(C(=O)N(CCCl)N=O)C(C)CC)C1O [Compound 81, 3-sec-butyl-3-(n-butyl β-D-glucopyranose-3-yl)-1-(2-chloroethyl)-1-nitrosourea]",200,5.8,3/6,> 360,34.5,580,–,–,–
"CC(C)CN(C(=O)N(CCCl)N=O)[C@@H]1[C@H](OC2CCCCC2)O[C@H](CO)[C@H]1O [Compound 162, 3-isobutyl-3-(cyclohexyl β-D-arabinofuranose-2-yl)-1-(2-chloroethyl)-1-nitrosourea]",160,5.63,3/6,> 350,28.4,500,–,–,–
